In patent publication US8906909B2 (Curis, Inc., priority 2009, dated 2014):
Like-named read-outs stand apart in the source and are kept apart here.

Assays:
[1] = system: HDACs (HeLa cell nuclear extracts); test: HDAC enzymatic activity, Biomol Color de Lys system; assay type: biochemical
In short: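 IC50 from sigmoidal dose-response fits of fluorescence (Ex 350–380, Em 440–460 nm). Compounds in DMSO dilution series incubated 1 h at 25 °C with HeLa nuclear extract HDACs and colorimetric substrate, pH 8.0 Tris/Cl buffer with NaCl, KCl, MgCl2, before developer termination.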

HCT-118 cells = test: Cell proliferation assay Method A (ATPlite), HCT-118; assay type: cell-based; details: 72 hours, read-out: antiproliferative activity IC50, HCT-118
Experimental: (§1) Cancer cell lines were plated at 5,000 to 10,000 per well in 96-well flat bottomed plates with various concentration of compounds. The cells were incubated with compounds for 72 hours in the presence of 0.5% of fetal bovine serum. Growth inhibition was accessed by adenosine triphosphate (ATP) content assay using Perkin Elmer ATPlite kit. ATPlite is an ATP monitoring system based on firefly luciferase. Briefly, 25 μl of mammalian cell lysis solution was added to 50 μl of phenol red-free culture medium per well to lyse the cells and stabilize the ATP. 25 μl of substrate solution was then added to the well and subsequently the luminescence was measured.

BT-474 cells = test: Cell proliferation assay Method A (ATPlite), BT-474; assay type: cell-based; details: Homo sapiens, 72 hours, read-out: antiproliferative activity IC50, BT-474
Experimental: as §1

Sk-Mel-28 cells [2] = test: Cell proliferation assay Method A (ATPlite), Sk-Mel-28; assay type: cell-based; details: Homo sapiens, 72 hours, read-out: antiproliferative activity IC50, Sk-Mel-28
Experimental: as §1

H1993 cells [3] = test: Cell proliferation assay Method A (ATPlite), H1993; assay type: cell-based; details: Homo sapiens, NCI-H1993, 72 hours, read-out: antiproliferative activity IC50, H1993
Experimental: as §1

H1993 cells [4] = test: Cell proliferation assay Method B, H1993; assay type: cell-based; details: Homo sapiens, NCI-H1993; NSCLC; H1993; 72 hours, 0.5% fetal bovine serum, CellTiter-Glo; read-out: antiproliferative activity IC50, H1993
Experimental: (§2) Cancer cell lines were plated at 5,000 to 10,000 per well in 96-well flat bottomed plates with various concentration of compounds. The cells were incubated with compounds for 72 hours in the presence of 0.5% of fetal bovine serum. Growth inhibition was accessed by adenosine triphosphate (ATP) content assay using Promega CellTiter-Glo kit. Promega CellTiter-Glo kit is an ATP monitoring system based on firefly luciferase. Briefly, 16 μl of mammalian cell lysis and substrate solution was added to 84 μl of culture medium per well to lyse the cells and stabilize the ATP. The mixture was shaken and incubated for 30 minutes and subsequently the luminescence was measured.

BT474 cells = test: Cell proliferation assay Method B, BT474; assay type: cell-based; details: Homo sapiens, BT-474, 72 hours, read-out: antiproliferative activity IC50, BT474
Experimental: as §2

Sk-Mel-28 cells [5] = test: Cell proliferation assay Method B, Sk-Mel-28; assay type: cell-based; details: Homo sapiens, Melanoma, 72 hours, read-out: antiproliferative activity IC50, Sk-Mel-28
Experimental: as §2

RPMI-8226 cells = test: Cell proliferation assay Method B, RPMI-8226; assay type: cell-based; details: Homo sapiens, Multiple Myeloma, 72 hours, 0.5% fetal bovine serum, CellTiter-Glo, read-out: antiproliferative activity IC50, RPMI-8226
Experimental: as §2

[6] = Sk-Mel-28, 0.5% fetal bovine serum, CellTiter-Glo

SMILES	IC50 [1] [nM]	IC50 (HCT-118 cells) [nM]	IC50 (BT-474 cells) [nM]	IC50 (Sk-Mel-28 cells [2]) [nM]	IC50 (H1993 cells [3]) [nM]	IC50 (H1993 cells [4]) [nM]	IC50 (BT474 cells; BT474, 0.5% fetal bovine serum, CellTiter-Glo) [nM]	IC50 (Sk-Mel-28 cells [5]; [6]) [nM]	melting point [°C]	IC50 (BT474 cells; Breast, Method B) [nM]	IC50 (Sk-Mel-28 cells [5]; SK-MEL-28, Method B) [nM]	IC50 (RPMI-8226 cells) [nM]
Cc1nc(N)ncc1-c1nc(N2CCOCC2)c2sc(CN(C)c3ncc(C(=O)NO)cn3)cc2n1 [Compound 125, 2-(((2-(2-amino-4-methylpyrimidin-5-yl)-4-morpholinothieno[3,2-d]pyrimidin-6-yl)methyl)(methyl)amino)-N-hydroxypyrimidine-5-carboxamide]	< 100	< 100	< 100	100 to 1000	100 to 1000	100 to 1000	10 to 100	100 to 1000	195 to 198	–	–	–
CN(Cc1cc2nc(-c3cccc4[nH]ncc34)nc(N3CCOCC3)c2s1)c1ncc(/C=C/C(=O)NO)cn1 [Compound 75]	100 to 1000	100 to 1000	100 to 1000	100 to 1000	100 to 1000	–	–	–	–	–	–	–
N#CCCN(Cc1cc2nc(-c3cccc4[nH]ncc34)nc(N3CCOCC3)c2s1)c1ncc(C(=O)NO)cn1 [Compound 99]	< 100	> 10000	100 to 1000	100 to 1000	> 10000	–	–	–	–	–	–	–
COCCN(Cc1cc2nc(-c3cccc4[nH]ncc34)nc(N3CCOCC3)c2s1)c1ncc(C(=O)NO)cn1 [Compound 90, 2-(((2-(1H-indazol-4-yl)-4-morpholinothieno[3,2-d]pyrimidin-6-yl)methyl)(2-methoxyethyl)amino)-N-hydroxypyrimidine-5-carboxamide]	–	< 100	100 to 1000	–	1000 to 10000	–	–	–	–	–	–	–
O=C(NO)c1ccc(NCc2cc3nc(-c4cccc5[nH]ncc45)nc(N4CCOCC4)c3s2)nc1 [Compound 76, 6-((2-(1H-indazol-4-yl)-4-morpholinothieno[3,2-d]pyrimidin-6-yl)methylamino)-N-hydroxynicotinamide]	< 100	100 to 1000	100 to 1000	100 to 1000	100 to 1000	–	–	–	218 to 220	–	–	–
O=C(NO)c1cnc(N(CCO)Cc2cc3nc(-c4cccc5[nH]ncc45)nc(N4CCOCC4)c3s2)nc1 [Compound 86, 2-(((2-(1H-indazol-4-yl)-4-morpholinothieno[3,2-d]pyrimidin-6-yl)methyl)(2-hydroxyethyl)amino)-N-hydroxypyrimidine-5-carboxamide]	< 100	100 to 1000	100 to 1000	1000 to 10000	–	–	–	–	190 to 194	–	–	–
CC(c1cc2nc(-c3cccc4[nH]ncc34)nc(N3CCOCC3)c2s1)N(C)c1ncc(C(=O)NO)cn1 (stereo not shown) [Compound 70]	< 100	< 100	< 100	< 100	< 100	–	–	–	–	< 10	100 to 1000	–
CNc1ccc(-c2nc(N3CCOCC3)c3sc(C(=O)NCC4CCN(c5ncc(C(=O)NO)cn5)CC4)cc3n2)cn1 [Compound 308, N-((1-(5-(Hydroxycarbamoyl)pyrimidin-2-yl)piperidin-4-yl)methyl)-2-(6-(methylamino)pyridin-3-yl)-4-morpholinothieno[3,2-d]pyrimidine-6-carboxamide]	< 100	–	–	–	–	–	–	–	215 to 218	–	–	100 to 1000
C[C@H](O)c1cccc(-c2nc(N3CCOCC3)c3sc(CN(C)c4ncc(C(=O)NO)cn4)cc3n2)c1 [Compound 296, (S)—N-Hydroxy-2-(((2-(3-(1-hydroxyethyl)phenyl)-4-morpholinothieno[3,2-d]pyrimidin-6-yl)methyl)(methyl)amino)pyrimidine-5-carboxamide]	< 100	–	–	–	–	–	–	–	168 to 172	–	–	< 10
CC(=O)OCCN(Cc1cc2nc(-c3cccc4[nH]ncc34)nc(N3CCOCC3)c2s1)c1ncc(C(=O)NO)cn1 [Compound 87]	< 100	100 to 1000	1000 to 10000	100 to 1000	1000 to 10000	–	–	–	–	–	–	–
O=C(NO)c1cnc(NCc2cc3nc(-c4cccc5[nH]ncc45)nc(N4CCOCC4)c3s2)nc1 [Compound 53, 2-((2-(1H-indazol-4-yl)-4-morpholinothieno[3,2-d]pyrimidin-6-yl)methylamino)-N-hydroxypyrimidine-5-carboxamide]	< 100	100 to 1000	< 100	100 to 1000	100 to 1000	–	–	–	234 to 237	–	–	–
CCN(Cc1cc2nc(-c3cccc4[nH]ncc34)nc(N3CCOCC3)c2s1)c1ncc(C(=O)NO)cn1 [Compound 92]	< 100	< 100	< 100	100 to 1000	–	–	–	–	–	–	–	–
O=C(NO)c1cnc(N(CCCO)Cc2cc3nc(-c4cccc5[nH]ncc45)nc(N4CCOCC4)c3s2)nc1 [Compound 91]	< 100	1000 to 10000	1000 to 10000	–	> 10000	–	–	–	–	–	–	–
CN(Cc1cc2nc(-c3cccnc3)nc(N3CCOCC3)c2s1)c1ncc(C(=O)NO)cn1 [Compound 109, N-hydroxy-2-(methyl((4-morpholino-2-(pyridin-3-yl)thieno[3,2-d]pyrimidin-6-yl)methyl)amino)pyrimidine-5-carboxamide]	< 100	< 100	< 100	–	< 100	–	–	–	160 to 164	–	–	–
CN(C)c1ncc(-c2nc(N3CCOCC3)c3sc(CN(C)c4ncc(C(=O)NO)cn4)cc3n2)cn1 [Compound 117, 2-(((2-(2-(dimethylamino)pyrimidin-5-yl)-4-morpholinothieno[3,2-d]pyrimidin-6-yl)methyl)(methyl)amino)-N-hydroxypyrimidine-5-carboxamide]	< 100	< 100	< 100	< 100	< 100	–	–	–	200 to 206	–	–	–
CN(Cc1cc2nc(-c3cccc(OCCO)c3)nc(N3CCOCC3)c2s1)c1ncc(C(=O)NO)cn1 [Compound 289, 2-({2-[3-(2-Hydroxy-ethoxy)-phenyl]-4-morpholin-4-yl-thieno[3,2-d]pyrimidin-6-ylmethyl}-methyl-amino)-pyrimidine-5-carboxylic acid hydroxyamide]	< 100	–	–	–	–	–	–	< 10	148 to 152	–	–	< 10
CC(O)c1cccc(-c2nc(N3CCOCC3)c3sc(CN(C)c4ncc(C(=O)NO)cn4)cc3n2)c1 (stereo not shown) [Compound 294, N-Hydroxy-2-(((2-(3-(1-hydroxyethyl)phenyl)-4-morpholinothieno[3,2-d]pyrimidin-6-yl)methyl)(methyl)amino)pyrimidine-5-carboxamide]	< 100	–	–	–	–	–	–	< 10	–	–	–	< 10
CN(Cc1cc2nc(-c3cc(F)cc4[nH]ncc34)nc(N3CCOCC3)c2s1)c1ncc(C(=O)NO)cn1 [Compound 69, 2-(((2-(6-fluoro-1H-indazol-4-yl)-4-morpholinothieno[3,2-d]pyrimidin-6-yl)methyl)(methyl)amino)-N-hydroxypyrimidine-5-carboxamide]	< 100	< 100	< 100	< 100	< 100	–	–	–	215 to 217	–	–	–
CN(Cc1cc2nc(-c3ccc(N)cc3Cl)nc(N3CCOCC3)c2s1)c1ncc(C(=O)NO)cn1 [Compound 284, 2-(((2-(4-Amino-2-chlorophenyl)-4-morpholinothieno[3,2-d]pyrimidin-6-yl)methyl)(methyl)amino)-N-hydroxypyrimidine-5-carboxamide]	< 100	–	–	–	–	–	–	–	179 to 183	–	–	< 10
CS(=O)(=O)N1CCN(Cc2cc3nc(-c4ccc(OCCCCC(=O)NO)cc4)nc(N4CCOCC4)c3s2)CC1 [Compound 319, N-Hydroxy-5-(4-(6-((4-(methylsulfonyl)piperazin-1-yl)methyl)-4-morpholinothieno[3,2-d]pyrimidin-2-yl)phenoxy)pentanamide]	100 to 1000	–	–	–	–	–	–	–	140 to 144	–	–	–
